From PMC12073635, “Synthesis of Tricyclic and Tetracyclic Lactone Derivatives of Thieno[2,3-b]pyrazine or Thieno[2,3-b]quinoline: Preliminary Antitumor and Antiparasitic Activity Evaluation” (Molecules, 2025)
“Also recorded” adds a separate entry of the source.

How the values were obtained:
[1] = test system: AGS (gastric adenocarcinoma) cells; experiment: SRB cell growth inhibition assay, AGS; format: cell-based; conditions: Homo sapiens, 72 h, mean ± standard deviation
Experimental: (§1) The antitumor potential of the Sonogashira coupling products 2, tricyclic lactones 3 and 5, and tetracyclic lactones 7 was evaluated using the sulforhodamine B (SRB) assay against five human tumor cell lines: colorectal adenocarcinoma (CaCo-2), breast adenocarcinoma (MCF-7), gastric adenocarcinoma (AGS), cervical carcinoma (HeLa), and non-small cell lung cancer (NCI-H460). A primary pig liver cell culture (PLP2) was used to assess the toxicity of compounds.
(§2) The human tumor cell lines used were CaCo-2 (colorectal adenocarcinoma), MCF-7 (breast adenocarcinoma), AGS (gastric adenocarcinoma), HeLa (cervical carcinoma), NCI-H460 (lung carcinoma). Non-tumor cell lines were also tested: PLP2 (primary pig liver culture). All the cell lines were maintained in RPMI-1640 medium supplemented with 10% fetal bovine serum, glutamine (2 mM), penicillin (100 U/mL), and streptomycin ([…]), with the exception of PLP2, which was maintained in DMEM medium supplemented with fetal bovine serum (10%), glutamine and antibiotics. The culture flasks were incubated at 37 °C and with 5% CO2, under a humid atmosphere. The cells were used only when they had 70 to 80% confluence. A known mass of each compound was dissolved in DMSO/H2O (1:1, 1 mL), in order to obtain the stock solutions with a concentration of 1 mM. […] Each compound concentration (10 μL) was incubated with the cell suspension (190 μL) of the cell lines tested in 96-well microplates for 72 h. The microplates were incubated at 37 °C and with 5% CO2 in a humid atmosphere after checking the adherence of the cells. All cell lines were tested at a concentration of 10,000 cells/well. After the incubation period, the cells were treated: TCA (10% w/v; 100 μL) was previously cooled, and plates were incubated for 1 h at 4 °C, washed with water, and, after drying, a SRB solution (0.057%, m/v; 100 μL) was added and left to stand at room temperature for 30 min. To remove non-adhered SRB, plates were washed three times with a solution of acetic acid (1% v/v) and placed to dry. Finally, an adhered SRB was solubilized with Tris (10 mM, 200 μL) and the absorbance at a wavelength of 540 nm was read in the Biotek ELX800 microplate reader. The results obtained by the SRB assay were expressed regarding the concentration compounds that can inhibit cell growth by 50%—GI50. Doxorubicin was used as a positive control.

[2] = SRB assay, toxicity in non-tumor PLP2 cells; format: cell-based, pig; conditions: PLP2 primary pig liver cells (non-tumor); non-tumor primary pig liver cells, SRB assay, 72 h, mean ± standard deviation
Experimental: as §1, §2

[3] = test system: MCF-7 (breast adenocarcinoma) cells; experiment: SRB cell growth inhibition assay, MCF-7; format: cell-based, human; conditions: Homo sapiens, MCF7, 72 h, mean ± standard deviation
Experimental: as §1, §2

[4] = test system: HeLa (cervical carcinoma) cells; experiment: SRB cell growth inhibition assay, HeLa; format: cell-based; conditions: Homo sapiens, 72 h, mean ± standard deviation
Experimental: as §1, §2

[5] = test system: NCI-H460 (non-small cell lung cancer) cells; experiment: SRB cell growth inhibition assay, NCI-H460; format: cell-based; conditions: Homo sapiens, 72 h, mean ± standard deviation
Experimental: as §1, §2

[6] = test system: CaCo-2 (colorectal adenocarcinoma) cells; experiment: SRB cell growth inhibition assay, CaCo-2; format: cell-based, human; conditions: Homo sapiens, Caco-2, 72 h, mean ± standard deviation
Experimental: as §1, §2

[7] = test system: L. infantum MHOM/MA/67/ITMAP-263 promastigotes; experiment: Resazurin-based assay against L. infantum promastigotes; format: cell-based, Leishmania infantum; conditions: 72 h; for L. infantum % of Activity ± ST.DEV (Single Dose 20 μM): single dose 20 μM, no activity = less than 20%
Experimental: (§3) The antiparasitic activity of compounds 2c–g, 3a, 5a and 7 was evaluated at a single concentration of 20 μM, against Trypanosoma brucei (T. brucei) and Leishmania infantum (L. infantum) promastigotes. The results are shown in Table 9 together with the cytotoxicity data (CC50) in THP-1–derived macrophages cells.
L. infantum MHOM/MA/67/ITMAP-263 promastigotes forms were grown at 27 °C, in complete RPMI-1640 medium supplemented with 10% heat-inactivated Fetal Bovine Serum (FBS), 2 mM L-glutamine, 100 UI/mL penicillin/streptomycin, 20 mM HEPES. Parasites maintenance was performed in T25 non-ventilated flasks by subpassage at a concentration of 1 × 10^6/mL every 5 days on T25 non-ventilated flasks.
The compounds’ efficacy against L. infantum promastigotes was evaluated using a resazurin-based assay. Parasites were added to 100 µL of serial dilutions of compounds in supplemented complete medium at a cell density of 5 × 10^5/mL. As a quality control, a dose–response curve to the antileishmanial drug miltefosine was included in all the assays. The final volume of the assay was 200 µL/well. Each condition was carried out in duplicate. Following 72 h of incubation at the specific conditions for L. infantum, 20 µL of a 0.5 mM resazurin solution was added, and the plates were incubated for a further 4 h under the same conditions. The methodology to obtain the results was the same described in Section 3.2.2. for T. brucei.

[8] = MTT cytotoxicity in THP-1-derived macrophages; format: cell-based, human; conditions: human, THP-1-derived macrophages (PMA-differentiated); MTT, 72 h, tested 100 to 12.5 μM; read-out: CC50 Interval in THP-1-Derived Macrophages
Experimental: (§4) Human leukemia cell line, THP-1 (ATCC® TIB-202™, Manassas, VA, USA) was cultured in RPMI-1640 medium supplemented with 10% heat-inactivated Fetal Bovine Serum (FBS), 2 mM L-glutamine, 100 UI/mL penicillin/streptomycin, 20 mM HEPES. The cell line was maintained in a humidified incubator at 37 °C and 5% CO2 by subculture every three days in 20 mL of media at a concentration of 1 × 10^5/mL in a T75 flask. All cell culture reagents were purchased from Lonza-Bioscience (Morrisville, NC, USA).
(§5) The cytotoxicity effect of compounds on THP-1-derived macrophages was assessed by the colorimetric MTT assay (3-(4,5-dimethylthiazol-2-yl)-2,5-diphenyl tetrazolium bromide). Briefly, THP-1 cells were suspended in RPMI complete medium at a density of 1 × 10^6 cells/mL and 100 μL/well were seeded in a 96-well plate and were differentiated into macrophages by addition of 40 ng/mL of phorbol-myristate 13-acetate (PMA, Sigma, Saint Louis, MI, USA) for 24 h followed by replacement with fresh medium for more 24 h. Subsequently, cells were incubated with 100 μL of compounds ranging from 100 to 12.5 μM after dilution in the RPMI complete medium. Each condition was carried out in quadruplicate. After 72 h of incubation at 37 °C 5% CO2, the medium was removed and 200 μL of 0.5 mg/mL MTT solution diluted in RPMI was added. Plates were incubated for an additional 4 h. Then 160 μL of media was removed and the same volume of 2-propanol was added. Absorbance was read at 570 nm using a Synergy 2 Multi-Mode Reader (Biotek, Winooski, VT, USA). Cytotoxicity was evaluated by the determination of the CC50 value (drug concentration that reduced the percentage of viable cells in 50%) and calculated by non-linear regression analysis using GraphPad Prism version 8.1.1 for Windows (GraphPad Software, San Diego, CA, USA). The results represent the average of at least three independent experiments. For each compound, the Selectivity Index (SI) was calculated as the ratio between cytotoxicity in THP-1 (CC50, 72 h) and activity against parasites (IC50, 72 h).

[9] = test system: T. brucei Lister 427 bloodstream forms; experiment: Resazurin-based anti-T. brucei assay; format: cell-based, Trypanosoma brucei; conditions: 72 h; for T. brucei % of Activity ± ST.DEV (Single Dose 20 μM): single dose 20 μM, no activity = less than 20%
Experimental: as §3
T. brucei Lister 427 bloodstream forms were grown in a humidified incubator at 37 °C, 5% CO2 in complete HMI-9 medium 1 supplemented with 10% heat-inactivated Fetal Bovine Serum (FBS) and 100 UI/mL penicillin/streptomycin. Parasites maintenance was performed in T25 ventilated flasks by subpassage at a concentration of 1 × 10^4/mL every 2 days on T25 ventilated flasks.
The efficacy of compounds against T. brucei bloodstream forms was evaluated using a modified resazurin-based assay previously described in the literature. Parasites were added to 100 µL of serial dilutions of compounds in supplemented complete medium at a cell density of 5 × 10^3/mL for. As a quality control, a dose–response curve for the antitrypanosomal pentamidine was included in all the assays. The final volume of the assay is 200 µL/well. Each condition was carried out in duplicate. Following 72 h incubation at the specific conditions for T. brucei, 20 µL of a 0.5 mM resazurin solution was added and plates were incubated for a further 4 h under the same conditions. Fluorescence was measured at 544 nm and 590 nm excitation and emission wavelength, respectively, using a Synergy 2 Multi-Mode Reader (Biotek, Winooski, VT, USA). Results were shown as % of parasite growth inhibition compared to control (untreated parasites) and represent the average of at least three independent experiments. The effect was evaluated by the determination of the IC50 value (concentration required to inhibit growth in 50%) and calculated by non-linear regression curves using GraphPad Prism version 8.1.1 for Windows (GraphPad Software, San Diego CA, USA).

[10] = test system: THP-1-derived macrophages; experiment: MTT cytotoxicity in THP-1-derived macrophages; format: cell-based, human
Experimental: as §4, §5

SMILES | GI50 [1] | GI50 [3] | GI50 [4] | GI50 [5] | GI50 [6] | IC50 ([9]; dose-response) | T. brucei IC50 ([9]; dose-response) | IC50 ([9]; Trypanosoma brucei, dose-response) | IC50 ([7]; Leishmania infantum, dose-response) | GI50 at 72 h [2] | L. infantum % of Activity ± ST.DEV (Single Dose 20 μM) [7] | CC50 at 72 h [8] | T. brucei % of Activity ± ST.DEV (Single Dose 20 μM) [9] | cytotoxicity in THP-1-derived macrophages (in words) [10]
COC(=O)c1sc2nccnc2c1C#Cc1ccc(F)cc1 [Compound 2c, Methyl 7-[(4-fluorophenyl)ethynyl]-thieno[2,3-b]pyrazine-6-carboxylate] | 70.7 ± 4.72 µM | 51.8 ± 1.07 µM | 48.3 ± 1.66 µM | 67.2 ± 3.05 µM | 52.1 ± 0.89 µM |  |  |  |  | > 125 µM | no activity * | > 100 µM | no activity * | 
COC(=O)c1sc2nccnc2c1C#Cc1ccc(OC)cc1 [Compound 2d, Methyl 7-[(4-methoxyphenyl)ethynyl]thieno[2,3-b]pyrazine-6-carboxylate] | 59.3 ± 1.97 µM | 67.9 ± 2.47 µM | 62.3 ± 2.98 µM | 82.5 ± 5.35 µM | 79.5 ± 3.58 µM |  |  |  |  | > 125 µM | no activity * | > 100 µM | no activity * | 
COC(=O)c1sc2nccnc2c1C#Cc1ccc(C)cc1 [Compound 2e, Methyl 7-(p-tolylethynyl)thieno[2,3-b]pyrazine-6-carboxylate] | 89.2 ± 5.33 µM | 95.8 ± 8.08 µM | 76.9 ± 6.55 µM | 102 ± 8.13 µM | 93 ± 7.23 µM |  |  |  |  | > 125 µM | no activity * | > 100 µM |  | 
COC(=O)c1sc2nccnc2c1C#Cc1ccsc1 [Compound 2g, Methyl 7-(thiophen-3-ylethynyl)thieno[2,3-b]pyrazine-6-carboxylate] | 46.1 ± 1.77 µM | 60 ± 3.19 µM | 36.4 ± 2.85 µM | 62.1 ± 3.05 µM | 30.7 ± 2.35 µM |  |  |  |  | 90.5 ± 6.47 µM | no activity * | > 100 µM | no activity * | 
O=c1oc(-c2ccc(C(F)(F)F)cc2)c(-c2ccc(C(F)(F)F)cc2)c2c1sc1nc3ccccc3cc12 [Compound 7e, 3,4-Bis(4-(trifluoromethyl)phenyl)-1H-pyrano[4’,3’:4,5]thieno[2,3-b]quinolin-1-one] |  |  |  |  |  |  |  |  |  |  | no activity * | 25 to 50 µM | no activity * | 

Further lines, with some results ahead:

GI50 [1] | GI50 [3] | GI50 [4] | GI50 [5] | GI50 [6] | IC50 ([9]; dose-response) | T. brucei IC50 ([9]; dose-response) | IC50 ([9]; Trypanosoma brucei, dose-response) | IC50 ([7]; Leishmania infantum, dose-response) | SMILES | GI50 at 72 h [2] | L. infantum % of Activity ± ST.DEV (Single Dose 20 μM) [7] | CC50 at 72 h [8] | T. brucei % of Activity ± ST.DEV (Single Dose 20 μM) [9] | cytotoxicity in THP-1-derived macrophages (in words) [10]
36.3 ± 1.47 µM | 52.6 ± 3.18 µM | 35.8 ± 2.08 µM | 51.5 ± 4.18 µM | 41.7 ± 1.02 µM | 10.8 µM | low μM range | < 11 µM |  | O=c1oc(-c2ccccc2)c(Cl)c2c1sc1nccnc12 [Compound 5a, 9-Chloro-8-phenyl-6H-pyrano[4′,3′:4,5]thieno[2,3-b]pyrazin-6-one] | 66.8 ± 3.58 µM |  | 50 to 100 µM |  | some level of toxicity; also recorded: some degree of cytotoxicity
93.5 ± 5.37 µM | 97.9 ± 6.31 µM | 78.9 ± 6.06 µM | 93.9 ± 3.18 µM | 75 ± 4.49 µM |  |  |  |  | O=c1oc(-c2ccccc2)c(-c2ccccc2)c2c1sc1nc3ccccc3cc12 [Compound 7a, 3,4-Diphenyl-1H-pyrano[4′,3′:4,5]thieno[2,3-b]quinolin-1-one] | > 125 µM | no activity * | < 12.5 µM |  | 
99.8 ± 4.94 µM | 101 ± 7.33 µM | 82.8 ± 8.02 µM | 109 ± 9.16 µM | 91.1 ± 2.46 µM |  |  |  | 19 µM | CCCCc1oc(=O)c2sc3nc4ccccc4cc3c2c1CCCC [Compound 7b, 3,4-Dibutyl-1H-pyrano[4′,3′:4,5]thieno[2,3-b]quinolin-1-one] | > 125 µM |  | 12.5 to 50 µM | no activity * | 
88.6 ± 5.08 µM | 91.2 ± 8.71 µM | 75.2 ± 6.72 µM | 97.8 ± 6.14 µM | 90 ± 3.29 µM |  |  |  |  | COc1ccc(-c2oc(=O)c3sc4nc5ccccc5cc4c3c2-c2ccc(OC)cc2)cc1 [Compound 7d, 3,4-Bis(4-methoxyphenyl)-1H-pyrano[4′,3′:4,5]thieno[2,3-b]quinolin-1-one] | > 125 µM | no activity * | < 12.5 µM | no activity * | 
